Legend:
[1] = target: T1, human LTA4H (Homo sapiens, UniProt P09960); test: Human LTA4H enzyme assay (Arg-AMC substrate); assay type: biochemical; settings: Arg-AMC 600 μM, 9 nM human LTA4H, 15 min pre-incubation; mean values of at least 3 measurements; read-out: ArgAMC IC50
T1 sequence (P09960 1-611): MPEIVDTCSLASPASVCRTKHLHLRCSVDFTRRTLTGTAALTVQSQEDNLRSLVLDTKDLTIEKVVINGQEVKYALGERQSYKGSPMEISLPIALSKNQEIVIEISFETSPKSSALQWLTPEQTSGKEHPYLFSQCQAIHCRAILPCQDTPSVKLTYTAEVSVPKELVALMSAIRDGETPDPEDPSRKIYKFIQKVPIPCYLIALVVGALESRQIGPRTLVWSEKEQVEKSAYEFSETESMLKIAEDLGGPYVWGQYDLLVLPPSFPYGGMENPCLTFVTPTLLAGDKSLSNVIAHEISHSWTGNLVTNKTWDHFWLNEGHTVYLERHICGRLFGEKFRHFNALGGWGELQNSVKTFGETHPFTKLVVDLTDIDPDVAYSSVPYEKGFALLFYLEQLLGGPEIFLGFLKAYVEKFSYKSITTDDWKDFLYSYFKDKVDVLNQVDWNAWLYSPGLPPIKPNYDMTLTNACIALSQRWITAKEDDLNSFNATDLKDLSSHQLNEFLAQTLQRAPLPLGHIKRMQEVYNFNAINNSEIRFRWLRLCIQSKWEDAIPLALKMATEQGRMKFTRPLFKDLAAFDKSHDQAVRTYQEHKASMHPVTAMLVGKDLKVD
Protocol: a) Human LTA4H Enzyme Assay:
[…] (LTA4H) catalyzes the vinylogous hydrolysis of the epoxide, leukotriene A4 (LTA4) into the pro-inflammatory mediator LTB4.
For compound testing, compounds are delivered as 10 mM stock solutions in 90% DMSO (10% water) in matrix tubes. […] A final substrate concentration of 600 μM, which is around the KM value of Arg-AMC, at a final enzyme concentration of 9 nM is chosen. Upon addition of the substrate, the plate is immediately placed in a fluorescence reader and the fluorescence is measured every 10 minutes for 60 minutes using the filter setting λ excitation=380 nm and A emission=460 nm. […] Raw data is converted to rate (moles per minute) using the AMC calibration curve calculated from the AMC standards. The data is analyzed in GraphPad Prism (GraphPad software Inc.) using non-linear regression to determine IC50 values of LTA4H inhibitors.

[2] = system: LTB4 biosynthesis in human whole blood; test: Human whole blood assay (hWB), inhibition of LTB4 biosynthesis; assay type: cell-based; settings: human blood diluted 1:3, 4 hours with compound, 10 μg/ml A23187 for 15 min, eicosanoid by ELISA; read-out: hWB IC50
Protocol: b) Human Whole Blood Assay:
Compounds are tested in a human whole blood assay (hWB) to test their ability to inhibit LTB4 biosynthesis in a human cellular system. To this end, fresh blood is collected in heparinized vacutainers by venipuncture from volunteers. Blood is diluted 1:3 with RPM (Roswell Park Memorial Institute) medium and aliquots of 200 μL are transferred to 96-well round bottom cell culture plates. For compound testing, compounds are delivered as 10 mM stock solutions in 90% DMSO in matrix tubes. […] 4 μL of compound dilution or vehicle is added to 200 μL of blood and incubated for 4 hours at 37° C. in a humidified incubator. […] Incubation is terminated by centrifugation at 300 g for 10 min at 22° C. Plasma supernatant is taken and transferred to a 96 well plate for eicosanoid determination by ELISA (Assay designs) according to the manufacturer's protocol after 1:20 dilution in assay buffer. The data is analyzed in GraphPad Prism (GraphPad software Inc.) using non-linear regression to determine IC50 values of LTA4H inhibitors.

IC50 [1] [nM] | IC50 [2] [nM] | SMILES
6.1 | 343 | CC(O)[C@@H](N)Cc1nc(-c2ccc(Oc3ncc(Br)cc3F)cc2)no1 (mixture of isomers) [Example 18, (3S)-3-amino-4-(3-(4-((5-bromo-3-fluoropyridin-2-yl)oxy)phenyl)-1,2,4-oxadiazol-5-yl)butan-2-ol]
2.2 | 63 | NC(CO)Cc1nnn(-c2ccc(Oc3ncc(Cl)cc3F)cc2)n1 (racemic) [Example 39, 2-Amino-3-(2-(4-((5-chloro-3-fluoropyridin-2-yl)oxy)phenyl)-2H-tetrazol-5-yl)propan-1-ol]
 | 91 | N[C@H](CO)Cc1nc(-c2cccc([C@H]3COc4ccccc4O3)c2)no1 [Example 01, (S)-2-amino-3-(3-(3-((S)-2,3-dihydrobenzo[b][1,4]dioxin-2-yl)phenyl)-1,2,4-oxadiazol-5-yl)propan-1-ol]
2.1 | 72 | N[C@H](CO)Cc1nc(-c2cccc(Oc3ccc(Cl)cn3)c2)no1 [Example 02, (S)-2-amino-3-(3-(3-((5-chloropyridin-2-yl)oxy)phenyl)-1,2,4-oxadiazol-5-yl)propan-1-ol]
 | 100 | N[C@H](CO)Cc1nc(-c2cccc(Oc3ccc(OC(F)F)cn3)c2)no1 [Example 03, (S)-2-amino-3-(3-(3-((5-(difluoromethoxy)pyridin-2-yl)oxy)phenyl)-1,2,4-oxadiazol-5-yl)propan-1-ol]
9.4 | 510 | N[C@H](CO)Cc1noc(-c2ccc(Oc3ccc(Cl)cn3)cc2)n1 [Example 06]
 | 117 | N[C@H](CO)Cc1nc(-c2ccc(Oc3ncc(-c4ccn[nH]4)cc3F)cc2)no1 [Example 07]
2.5 | 74 | N[C@H](CO)Cc1nc(-c2cccc(Oc3ccc(-c4ccn[nH]4)cn3)c2)no1 [Example 09, (S)-3-(3-(3-((5-(1H-pyrazol-5-yl)pyridin-2-yl)oxy)phenyl)-1,2,4-oxadiazol-5-yl)-2-aminopropan-1-ol]
6.3 | 141 | N[C@H](CO)Cc1nc(-c2cccc(Oc3ccc(C(F)(F)F)cn3)c2)no1 [Example 10, (S)-2-amino-3-(3-(3-((5-(trifluoromethyl)pyridin-2-yl)oxy)phenyl)-1,2,4-oxadiazol-5-yl)propan-1-ol]
 | 44 | N[C@H](CO)Cc1nc(-c2cccc([C@@H]3COc4cccnc4O3)c2)no1 [Example 11, (S)-2-amino-3-(3-(3-((R)-2,3-dihydro-[1,4]dioxino[2,3-b]pyridin-3-yl)phenyl)-1,2,4-oxadiazol-5-yl)propan-1-ol]
 | 51 | N[C@H](CO)Cc1nc(-c2ccc(Oc3ccc(-c4ccn[nH]4)cn3)cc2)no1 [Example 13, (S)-3-(3-(4-((5-(1H-Pyrazol-5-yl)pyridin-2-yl)oxy)phenyl)-1,2,4-oxadiazol-5-yl)-2-aminopropan-1-ol]
2.3 | 39 | N[C@H](CO)Cn1nnc(-c2cccc([C@@H]3COc4cccnc4O3)c2)n1 [Example 14, (S)-2-amino-3-(5-(3-((R)-2,3-dihydro-[1,4]dioxino[2,3-b]pyridin-3-yl)phenyl)-2H-tetrazol-2-yl)propan-1-ol]
2.9 | 79 | N[C@H](CO)Cc1nc(-c2cccc([C@@H]3COc4ccccc4O3)c2)no1 [Example 15, (S)-2-amino-3-(3-(3-((R)-2,3-dihydrobenzo[b][1,4]dioxin-2-yl)phenyl)-1,2,4-oxadiazol-5-yl)propan-1-ol]
2.4 | 229 | N[C@H](CO)Cc1nc(-c2ccc(Oc3ccc(Cl)cn3)cc2)no1 [Example 16, (S)-2-amino-3-(3-(4-((5-chloropyridin-2-yl)oxy)phenyl)-1,2,4-oxadiazol-5-yl)propan-1-ol]
4.9 | 65 | N[C@@H](CO)Cn1nnc(-c2ccc(Oc3ccc(-c4ccn[nH]4)cn3)cc2)n1 [Example 19, (R)-3-(5-(4-((5-(1H-pyrazol-3-yl)pyridin-2-yl)oxy)phenyl)-2H-tetrazol-2-yl)-2-aminopropan-1-ol]
3.2 | 75 | N[C@H](CO)Cn1nnc(-c2ccc(Oc3ccc(-c4ccn[nH]4)cn3)cc2)n1 [Example 20, (S)-3-(5-(4-((5-(1H-pyrazol-3-yl)pyridin-2-yl)oxy)phenyl)-2H-tetrazol-2-yl)-2-aminopropan-1-ol]
3.1 | 123 | N[C@H](CO)Cn1ccc(-c2ccc(Oc3ncc(-c4ccn[nH]4)cc3F)cn2)n1 [Example 21, (S)-2-amino-3-(3-(5-((3-fluoro-5-(1H-pyrazol-5-yl)pyridin-2-yl)oxy)pyridin-2-yl)-1H-pyrazol-1-yl)propan-1-ol]
2.7 | 89 | N[C@H](CO)Cn1nnc(-c2ccc(Oc3ncc(-c4ccn[nH]4)cc3F)cn2)n1 [Example 22, (S)-2-amino-3-(5-(5-((3-fluoro-5-(1H-pyrazol-5-yl)pyridin-2-yl)oxy)pyridin-2-yl)-2H-tetrazol-2-yl)propan-1-ol]
37.6 | 753 | N[C@H](CO)Cn1ccc(-c2ccc(Oc3ncc(Cl)cc3F)cn2)n1 [Example 23, (S)-2-amino-3-(3-(5-((5-chloro-3-fluoropyridin-2-yl)oxy)pyridin-2-yl)-1H-pyrazol-1-yl)propan-1-ol]
 | 379 | N[C@H](CO)Cn1ccc(-c2cccc(Oc3ncc(Cl)cc3F)c2)n1 [Example 24, (S)-2-amino-3-(3-(3-((5-chloro-3-fluoropyridin-2-yl)oxy)phenyl)-1H-pyrazol-1-yl)propan-1-ol]
160 |  | N[C@H](CO)Cn1cc(-c2ccc(Oc3ncc(Cl)cc3F)cc2)cn1 [Example 25, (S)-2-amino-3-(4-(4-((5-chloro-3-fluoropyridin-2-yl)oxy)phenyl)-1H-pyrazol-1-yl)propan-1-ol]
 | 69 | N[C@@H](CO)Cn1nnc(-c2ccc(Oc3ncc(Cl)cc3F)cc2)n1 [Example 30, (R)-2-Amino-3-(5-(4-((5-chloro-3-fluoropyridin-2-yl)oxy)phenyl)-2H-tetrazol-2-yl)propan-1-ol]
15.8 |  | N[C@H](CO)Cn1nnc(-c2ccc(Oc3ccc(Cl)cc3)nc2)n1 [Example 35, (S)-2-Amino-3-(5-(6-(4-chlorophenoxy)pyridin-3-yl)-2H-tetrazol-2-yl)propan-1-01]
7.4 |  | N[C@H](CO)Cn1nnc(-c2ccc(Oc3ncc(-c4ncco4)cc3F)cc2)n1 [Example 38, (2S)-2-amino-3-[5-(4-[[3-fluoro-5-(1,3-oxazol-2-yl)pyridin-2-yl]oxy]phenyl)-2H-1,2,3,4-tetrazol-2-yl]propan-1-ol]

SMILES | IC50 [1] [nM] | IC50 [2] [nM]
N[C@H](CO)Cc1nc(-c2ccc(Oc3ccc(C(F)(F)F)cn3)cc2)no1 [Example 04, (S)-2-amino-3-(3-(4-((5-(trifluoromethyl)pyridin-2-yl)oxy)phenyl)-1,2,4-oxadiazol-5-yl)propan-1-ol] | 11.8 | 327
N[C@H](CO)Cc1nc(-c2ccc(Oc3ccc(OC(F)F)cn3)cc2)no1 [Example 05, (S)-2-amino-3-(3-(4-((5-(difluoromethoxy)pyridin-2-yl)oxy)phenyl)-1,2,4-oxadiazol-5-yl)propan-1-ol] | 28.3 | 1850
C[C@H](Cc1ccccc1)Oc1ccc(-c2noc(C[C@H](N)CO)n2)cc1 [Example 17, (S)-2-amino-3-(3-(4-(((R)-1-phenylpropan-2-yl)oxy)phenyl)-1,2,4-oxadiazol-5-yl)propan-1-ol] | 16.7 | 297
N[C@H](CO)Cn1nnc(-c2ccc(Oc3ncc(Cl)cc3F)cc2)n1 [Example 29, (S)-2-Amino-3-(5-(4-((5-chloro-3-fluoropyridin-2-yl)oxy)phenyl)-2H-tetrazol-2-yl)propan-1-ol] |  | 162

Reference: patent US11932630B2, “Heteroaryl aminopropanol derivatives” (NOVARTIS AG, priority 2021, dated 2024)
